# “And” between values parts separate entries of the source, which are not always exact repeats. Equal values may be shown once. Peptide text beside a SMILES is read from it.
# Key:
# [1] = Percent change in platelet count after Enoxaparin reversal, canine study; assay type: in vivo; details: dogs, agent over 10 seconds
# Procedure: (§1) Seven female dogs (mean weight 15-20 kg) received intravenous standard, unfractionated heparin (150 IU/kg IV) or LMWH (Enoxaparin, Rhone-Poulac, France; 100 IU/kg factor Xa activity) followed by reversal with commercial salmine protamine (n-protamine purchased from Eli Lilly, Indianapolis, Ind., 1.5 mg/kg (100 IU/mg) IV) or an anticoagulation-reversing agent which is a protamine-like peptide variant identified hereinbelow. In these studies, the anticoagulation-reversing agents were administered over a 10 second interval to maximize the hemodynamic effects.
# [2] = Percent change in platelet count after standard heparin reversal, cell adhesion ligand analogs, canine study; assay type: in vivo; details: dogs, agent over 10 seconds
# Procedure: In addition to hemodynamic changes, Table 15 lists the percent change in platelet count following administration of n-protamine and the selected variants, as well as the factor Xa and factor IIa reversal, as a percent change at 3 minutes post administration of the compound.
# [3] = Maximum hemodynamic changes and total toxicity score after Enoxaparin reversal, canine study; details: dogs, agent over 10 seconds; for Maximum hemodynamic change, Mean BP: Enoxaparin 100 IU/kg; for Maximum hemodynamic change, Mean BP / Maximum hemodynamic change, CO / Maximum hemodynamic change, HR / Maximum hemodynamic change, VO2: 5 minutes; for Total Toxicity Score (TTS) / Maximum hemodynamic change, CO / Maximum hemodynamic change, HR / Maximum hemodynamic change, VO2: Enoxaparin
# Procedure: as §1
# [4] = Maximum hemodynamic changes and total toxicity score after standard heparin reversal, cell adhesion ligand analogs, canine study; details: dogs, agent over 10 seconds; for Maximum hemodynamic change, Mean BP: standard heparin 150 IU/kg IV; for Maximum hemodynamic change, Mean BP / Maximum hemodynamic change, CO / Maximum hemodynamic change, HR / Maximum hemodynamic change, VO2: 5 minutes; for Maximum hemodynamic change, CO / Maximum hemodynamic change, HR / Maximum hemodynamic change, VO2: standard heparin; for Total Toxicity Score: standard unfractionated heparin
# Procedure: In these studies, the anticoagulation-reversing agents were administered over a 10 second interval to maximize the hemodynamic effects.
# Hemodynamic studies were conducted by measuring mean blood pressure (Mean BP) in mm Mercury, maximum percent changes in cardiac output (CO) and systemic oxygen consumption (VO2), and heart rate (HR) in beats per minute. Measurements and calculations were made at baseline, before administration of standard, unfractionated heparin, 3 minutes before reversal, every 30 seconds for 5 minutes after reversal.
# Total toxicity scores (TTS) were developed in accordance with the method described hereinabove that reflected maximum declines in each of four parameters (MAP, CO, VO2 and HR) over the first 5 minutes after reversal.
# [5] = test system: standard, unfractionated heparin; assay: Factor Xa and IIa reversal after standard heparin, cell adhesion ligand analogs, canine study; assay type: in vivo; details: dogs, 3 min post administration
# Procedure: Anticoagulation reversal was assessed by a number of standard coagulation tests performed upon samples of venous blood in the manner described hereinabove. Measurements were made 3 minutes prior to heparin reversal (baseline) and 3 minutes, 10 minutes, and 30 minutes post-administration of the heparin reversal agent. […] Referring to FIGS. 4a through 4d, compound [+18RGD] performs as well, or better, than n-protamine in the standard coagulation tests performed in these studies.
# LMWH (Enoxaparin) = assay: Factor Xa and IIa reversal after LMWH Enoxaparin, canine study; assay type: in vivo; details: dogs, 3 min
# Procedure: Similar studies were conducted to assess the ability of the protamine-like peptide analogs described in this section to reverse the anticoagulation effects of the LMWH, Enoxaparin. FIG. 5a through FIG. 5d are graphical representations of LMWH anticoagulation activities achieved by n-protamine (Protamine [+21]), and compounds [+18BE], [+18KDEL], and [+18RGD] plotted as a percent of reversal against time in minutes. […] Referring to FIG. 5c, compound [+18RGD] dramatically outperforms n-protamine in reversing the heparin antifactor Xa activity of Enoxaparin.
# [6] = test system: standard, unfractionated heparin; assay: Percent reversal of standard heparin anticoagulation by variant peptides and protamine, in vivo canine study, coagulation tests; set-up: species or system dogs; details: for Percent reversal of heparin anticoagulation, ACT: heparin 150 IU/kg IV, agent 1.5 mg/kg IV over 10 seconds
# Procedure: Data are expressed as a mean ±1 SD. Statistical analysis using linear regression for determination of correlation coefficients, and analysis of variance (ANOVA) or unpaired two-way Student's t-test; p<0.05 was accepted as statistically significant.
# Anticoagulation reversal was assessed by a number of standard coagulation tests performed upon samples of venous blood: activated clotting time (ACT), prothrombin time (PT), activated partial thromboplastin time (aPTT), thrombin clotting time (TCT), heparin concentration by assay for FXa inhibitory activity (FXa), white cell count (WBC), and platelet counts (PLT). Measurements were made 3 minutes prior to heparin reversal (baseline) and 3 minutes and 30 minutes post-administration of the heparin reversal agent. The "Heparin" row sets forth the observed reversal as a consequence of expected heparin metabolism or degradation alone.
# [7] = Hemodynamic studies and total toxicity score after standard heparin reversal, canine study; details: dogs
Compound,Platelet (percent change in platelet count) [1] [%],Platelet (percent change in platelet count) [2] [%],"Maximum hemodynamic change, Mean BP [3] [mm Mercury]",Total Toxicity Score (TTS) [3],"Maximum hemodynamic change, CO [3] [%]","Maximum hemodynamic change, HR [3] [beats/min]","Maximum hemodynamic change, VO2 [3] [%]","Maximum hemodynamic change, Mean BP [4] [mm Mercury]","Maximum hemodynamic change, CO [4] [%]","Maximum hemodynamic change, HR [4] [beats/min]","Maximum hemodynamic change, VO2 [4] [%]",Total Toxicity Score [4],IIa Reversal [5] [%],Xa Reversal [5] [%],IIa Reversal (LMWH (Enoxaparin)) [%],Xa Reversal (LMWH (Enoxaparin)) [%],further results
"CC(=O)N[C@@H](CCC(=O)O)C(=O)N[C@@H](C)C(=O)N[C@@H](CCCNC(=N)N)C(=O)N[C@@H](CCCNC(=N)N)C(=O)N[C@@H](C)C(=O)N[C@@H](C)C(=O)N[C@@H](CCCNC(=N)N)C(=O)N[C@@H](CCCNC(=N)N)C(=O)N[C@@H](C)C(=O)N[C@@H](CCCNC(=N)N)C(=O)N[C@@H](CCCNC(=N)N)C(=O)N[C@@H](C)C(=O)N[C@@H](C)C(=O)N[C@@H](CCCNC(=N)N)C(=O)N[C@@H](CCCNC(=N)N)C(=O)N[C@@H](C)C(=O)N[C@@H](CCCNC(=N)N)C(=O)N[C@@H](CCCNC(=N)N)C(=O)N[C@@H](C)C(=O)N[C@@H](C)C(=O)N[C@@H](CCCNC(=N)N)C(=O)N[C@@H](CCCNC(=N)N)C(=O)N[C@@H](C)C(=O)N[C@@H](CCCNC(=N)N)C(=O)N[C@@H](CCCNC(=N)N)C(=O)N[C@@H](C)C(=O)N[C@@H](C)C(=O)N[C@@H](CCCNC(=N)N)C(=O)N[C@@H](CCCNC(=N)N)C(=O)N[C@@H](C)C(=O)N[C@@H](CCCNC(=N)N)C(=O)N[C@@H](CCCNC(=N)N)C(=O)NCC(=O)N[C@@H](CCCNC(=N)N)C(=O)NCC(=O)N[C@@H](CC(=O)O)C(=O)N[C@@H](CO)C(=O)N1CCC[C@H]1C(=O)N[C@@H](C)C(N)=O [[+18RGD], acetyl-EA--(R2 A2 R2 A)4 R2 GRGDSPA-amide] (Ac-EARRAARRARRAARRARRAARRARRAARRARRGRGDSPA-NH2)",-31,-27,-1,-2.68 and -2.68 ± 0.88,-3,-3,-7,-2,-3,-3,-4,-1.43 ± 0.61,100,100,100,72,
P(K2 O2 G4)3 K2 O2 [[+8]],,,,,,,,,,,,,,,,,"in vivo heparin reversal (summary) ([6]; dogs, standard heparin): not capable of effect heparin reversal; Percent reversal of heparin anticoagulation, ACT ([6]; dogs, 3 min post-administration): 7%; Percent reversal of heparin anticoagulation, ACT ([6]; dogs, 30 min): 37%; Percent reversal of heparin anticoagulation, APTT ([6]; same study, 3 min): 0%; Percent reversal of heparin anticoagulation, FNa ([6]; same study, 3 min): 8%; Percent reversal of heparin anticoagulation, FXa ([6]; same study, 3 min): -1%; Percent reversal of heparin anticoagulation, PT ([6]; same study, 3 min): 21%; Percent reversal of heparin anticoagulation, TCT ([6]; same study, 3 min): 0%; Percent reversal of heparin anticoagulation, APTT ([6]; same study, 30 min): 50%; Percent reversal of heparin anticoagulation, FXa ([6]; same study, 30 min): 9%; Percent reversal of heparin anticoagulation, PT ([6]; same study, 30 min): 50%; Percent reversal of heparin anticoagulation, TCT ([6]; same study, 30 min): 0%; ΔHR [7]: -9; ΔMAP ([7]; average maximum decline in first five minutes after peptide administration): -1; average total toxicity score (TTS±SD) ([7]; first 5 minutes after reversal, more negative = more toxic): -1.9±1.1; ΔCO ([7]; maximum percent change): -8%; ΔVO2 ([7]; maximum percent change): -8%"
"CC(=O)N[C@@H](CCC(=O)O)C(=O)N[C@@H](C)C(=O)N[C@@H](CCCNC(=N)N)C(=O)N[C@@H](CCCNC(=N)N)C(=O)N[C@@H](C)C(=O)N[C@@H](C)C(=O)N[C@@H](CCCNC(=N)N)C(=O)N[C@@H](CCCNC(=N)N)C(=O)N[C@@H](C)C(=O)N[C@@H](CCCNC(=N)N)C(=O)N[C@@H](CCCNC(=N)N)C(=O)N[C@@H](C)C(=O)N[C@@H](C)C(=O)N[C@@H](CCCNC(=N)N)C(=O)N[C@@H](CCCNC(=N)N)C(=O)N[C@@H](C)C(=O)N[C@@H](CCCNC(=N)N)C(=O)N[C@@H](CCCNC(=N)N)C(=O)N[C@@H](C)C(=O)N[C@@H](C)C(=O)N[C@@H](CCCNC(=N)N)C(=O)N[C@@H](CCCNC(=N)N)C(=O)N[C@@H](C)C(=O)N[C@@H](CCCNC(=N)N)C(=O)N[C@@H](CCCNC(=N)N)C(=O)N[C@@H](C)C(=O)N[C@@H](C)C(=O)N[C@@H](CCCNC(=N)N)C(=O)N[C@@H](CCCNC(=N)N)C(=O)N[C@@H](C)C(=O)N[C@@H](CCCNC(=N)N)C(=O)N[C@@H](CCCNC(=N)N)C(=O)NCC(=O)N[C@H](C(=O)N[C@@H](CCCCN)C(=O)N[C@@H](CC(=O)O)C(=O)N[C@@H](CCC(=O)O)C(=O)N[C@@H](CC(C)C)C(=O)O)C(C)C [[+18KDEL], acetyl-EA(R2 A2 R2 A)4 R2 GVKDEL] (Ac-EARRAARRARRAARRARRAARRARRAARRARRGVKDEL-OH)",-40,-24,-6,-5.00 and -5.0 ± 3.44,-14,-11,-10,-5,-12,-14,-6,-3.53 ± 1.65,94,97,98,48,

# — patent US5919761A, “Peptides for heparin and low molecular weight heparin anticoagulation reversal” (The Board of Regents of the University of Michigan, priority 1995, dated 1999)
